How the values were obtained:
VCAM-1 = target: T1, VCAM-1 (Homo sapiens, UniProt P19320); experiment: Transient expression of VCAM-1 in HEK293 cells, Western blot / immunoblot; type: cell-based; design: expressed in transfected cells; host or cells: HEK293
T1 sequence (P19320 25-739): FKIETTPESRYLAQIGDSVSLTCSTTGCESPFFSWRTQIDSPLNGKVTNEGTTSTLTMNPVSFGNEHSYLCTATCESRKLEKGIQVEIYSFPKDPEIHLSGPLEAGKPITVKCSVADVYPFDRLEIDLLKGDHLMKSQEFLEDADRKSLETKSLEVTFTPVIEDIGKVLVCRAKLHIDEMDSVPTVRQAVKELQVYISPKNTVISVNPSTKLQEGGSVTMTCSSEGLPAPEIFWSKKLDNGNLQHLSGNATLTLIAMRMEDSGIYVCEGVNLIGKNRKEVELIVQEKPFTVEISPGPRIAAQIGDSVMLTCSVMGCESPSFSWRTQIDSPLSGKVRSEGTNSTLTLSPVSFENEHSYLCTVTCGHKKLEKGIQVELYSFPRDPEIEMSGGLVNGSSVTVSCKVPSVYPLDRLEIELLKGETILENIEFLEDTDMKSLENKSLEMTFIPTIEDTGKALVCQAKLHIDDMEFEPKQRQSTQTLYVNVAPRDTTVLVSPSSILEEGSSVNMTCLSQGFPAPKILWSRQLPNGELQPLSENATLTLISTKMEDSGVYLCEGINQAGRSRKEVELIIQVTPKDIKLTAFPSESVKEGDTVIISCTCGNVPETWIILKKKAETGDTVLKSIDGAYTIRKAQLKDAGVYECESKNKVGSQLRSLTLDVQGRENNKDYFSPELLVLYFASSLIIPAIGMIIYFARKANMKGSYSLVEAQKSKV
Protocol: (§1) The E-Selectin and ICAM-1 expression vectors pCDM8-E-selectin and pCDM8-ICAM-1 allowing transient expression in mammalian cells and cell-free translation are obtained from R&D Systems. VCAM-1 cDNA is obtained by reverse transcription of total RNA from TNF-α stimulated primary human umbilical vein endothelial cells (HUVEC) as follows. After extraction of total RNA with Trizol (GibcoBRL) according to the suppliers recommendations, reverse transcription (RT) PCR on approximately 3 μg total HUVEC RNA is performed using the Advantage High Fidelity PCR kit (CLONTECH) under standard conditions with N- and C-terminal VCAM-1-specific sense and antisense oligonucleotide primers, respectively. Primers are tailed, introducing a Kpnl restriction site 5′ of the Kozak sequence and a Xhol site 3′ of the stop codon. Placental SEAP is amplified accordingly by PCR using plasmid pBC 12/PLAP489 (Berger et al., 1988) as a template and similar tailed SEAP-specific sense and antisense oligonuclotide primers. The SEAP and VCAM-1 cDNAs are isolated and cloned into the pCR2.1 vector (TA cloning kit, Invitrogen). […] Approximately equal molar quantities of each PCR product A and B are phosphorylated and ligated. […]
(§2) Protein expression in cells is analyzed by Western blot and subsequent immunoblot analysis. […]

E-Selectin [1] = target: T2, E-Selectin (Homo sapiens, UniProt P16581); experiment: Cell-free translation/translocation assay, E-Selectin; type: biochemical; details: reticulocyte lysate with dog pancreatic microsomes, at the concentrations tested
T2 construct: Full length cDNAs of the adhesion molecules VCAM-1, ICAM-1 and E-Selectin are transcribed and translated; host or cells: cell-free: coupled TNT reticulocyte lysate (Promega) with dog pancreatic microsomes
T2 sequence (P16581 22-610): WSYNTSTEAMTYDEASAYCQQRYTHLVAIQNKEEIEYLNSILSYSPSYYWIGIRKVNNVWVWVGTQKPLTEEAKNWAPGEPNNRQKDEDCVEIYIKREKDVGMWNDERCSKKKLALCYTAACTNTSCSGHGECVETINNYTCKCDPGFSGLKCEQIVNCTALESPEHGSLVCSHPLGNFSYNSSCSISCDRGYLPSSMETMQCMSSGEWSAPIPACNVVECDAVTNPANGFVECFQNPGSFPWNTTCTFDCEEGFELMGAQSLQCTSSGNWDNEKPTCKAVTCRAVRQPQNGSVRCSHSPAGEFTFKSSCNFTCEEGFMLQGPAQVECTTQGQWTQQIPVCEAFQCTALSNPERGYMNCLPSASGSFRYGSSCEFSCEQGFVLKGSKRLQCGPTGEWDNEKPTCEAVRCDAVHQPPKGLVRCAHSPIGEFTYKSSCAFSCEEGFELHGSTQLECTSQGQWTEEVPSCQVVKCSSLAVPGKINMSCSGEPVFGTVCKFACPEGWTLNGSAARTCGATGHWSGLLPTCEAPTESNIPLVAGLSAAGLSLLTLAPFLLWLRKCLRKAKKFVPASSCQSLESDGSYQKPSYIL
Text: (§3) Proteins are radioactively labelled and visualised by autoradlography.

E-Selectin [2] = target: T2, E-Selectin; experiment: Transient expression of E-Selectin in HEK293 cells, Western blot / immunoblot; type: cell-based; details: transiently transfected HEK293 cells, 48 hours post-transfection, increasing concentrations
Protocol: as §1, §2

ICAM-1 = target: T3, ICAM-1 (Homo sapiens, UniProt P05362); experiment: Cell-free translation/translocation assay, ICAM-1; type: biochemical; details: reticulocyte lysate with dog pancreatic microsomes
T3 construct: Full length cDNAs of the adhesion molecules VCAM-1, ICAM-1 and E-Selectin are transcribed and translated; host or cells: cell-free: coupled TNT reticulocyte lysate (Promega) with dog pancreatic microsomes
T3 sequence (P05362 28-532): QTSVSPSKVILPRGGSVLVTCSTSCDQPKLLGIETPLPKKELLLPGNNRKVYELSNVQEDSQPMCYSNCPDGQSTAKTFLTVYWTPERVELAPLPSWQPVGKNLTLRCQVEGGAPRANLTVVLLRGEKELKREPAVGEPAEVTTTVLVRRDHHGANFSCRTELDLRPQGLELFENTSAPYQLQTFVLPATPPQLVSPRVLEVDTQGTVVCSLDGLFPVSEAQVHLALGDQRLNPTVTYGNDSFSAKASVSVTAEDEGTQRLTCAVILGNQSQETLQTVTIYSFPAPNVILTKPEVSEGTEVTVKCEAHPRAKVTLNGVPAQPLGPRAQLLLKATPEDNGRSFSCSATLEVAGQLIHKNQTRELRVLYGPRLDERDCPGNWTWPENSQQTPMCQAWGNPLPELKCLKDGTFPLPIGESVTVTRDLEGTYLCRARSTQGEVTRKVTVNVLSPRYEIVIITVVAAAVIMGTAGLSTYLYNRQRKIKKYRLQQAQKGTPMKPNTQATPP
Text: as §3

[3] = system: VCAMSP(15+4)-SEAP construct; experiment: SP-SEAP assay, secretion of SEAP into the medium; type: cell-based; details: transiently transfected cells, increasing concentrations, dose-dependent
Protocol: (§4) Cell Culture and Transient Transfections HEK293 cells are maintained in Dulbeccos' modified Eagle's medium (DMEM, Gibco-BRL), supplemented with 10% heat-inactivated fetal calf serum (FCS, Bio-Whittaker) and 100 Units/ml each of penicillin (BC) and streptomycin (Gibco-BRL) at 37° in a 5% humidified CO2 incubator. HUVEC cells are cultured in endothelial cell basal medium (EBM, Clonetics Corp.) supplemented with 10% FCS, 5×10^−4 M dibutyryl cAMP (Sigma), 1 μg/ml hydrocortisone (Sigma) and 10 ng/ml human EGF (Boehringer) at 37° in a 5% humidified CO2 incubator. VCAM-1 production is stimulated by incubation with 100U/ml TNF-α for ca. 8 hours. For transient transfection, HEK293 cells are seeded into 6-well or 24-well cell culture dishes at a density of 6×10^5 cells/well or 1.5×10^5 cells/well, respectively, the day prior to transfection and grown to 50-70% confluency. Cells are transfected with 2 μg or 1 μg of plasmid DNA, respectively, using the SuperFect reagent (Qiagen) according to the supplier's recommendations. Cells are incubated either without or with addition of a candidate compound, respectively, at concentrations indicated for ca. 24 to 48 hours. […]
(§5) Human placental SEAP levels in cell supernatants are determined using either a fluorescence-based assay or an assay that measures light absorbance at 405 nm accompanying hydrolysis of pNPP according to the method described (Berger et al., 1988). […] 20 μl of 120 mM pNPP in 1x SEAP buffer prewarmed to 37° is added and the change in absorbance at 37° is plotted. […] For determination of SEAP levels by a fluorescence-based assay the Atto Phos AP Fluorescent Substrate Sysem (Promega) is used according to the manufacturer's instructions.
(§6) For the establishment and as a first proof of principle of an assay (system) according to the present invention, SP-reporter gene fusion constructs are generated using the SP of compound sensitive and insensitive proteins, respectively, and the mature sequence of placental SEAP as the reporter gene (see FIG. 5). […] Finally, secretion of the reporter SEAP protein into the medium is determined. […]

VCAMSP-SEAP construct = experiment: SP-SEAP assay, secretion of SEAP into the medium; type: cell-based; details: transiently transfected cells, increasing concentrations
Protocol: as §4, §5, §6

[4] = system: E-SelectinSP-SEAP fusion protein; experiment: SP-SEAP assay, secretion of SEAP into the medium; type: cell-based; details: transiently transfected cells, increasing concentrations
Protocol: as §4, §5, §6

SMILES: CCCCC(C)CC1NC(=O)C(Cc2cn(OC)c3ccccc23)N(C)C(=O)C(CC(C)C)NC(=O)C(CC(C)C)N(C)C(=O)C(CC(C)CCCC)NC(=O)C(CCC(=O)OCCC)OC(=O)C(C)N(C)C1=O (centres unmarked) [CP]
- VCAM-1 protein in transfected cells co-treated with lactacystin (VCAM-1; cells transiently transfected with VCAM-1 cDNA, co-treatment with lactacystin 5 μM, band identified as full length, non-glycosylated VCAM-1): accumulation of a polypeptide moiety of lower molecular weight
- IC50 (VCAM-1; transiently transfected HEK293 cells, 48 hours post-transfection, Western blot quantified against β-actin, read-out: concentration inhibiting 50% of VCAM-1 glycoprotein synthesis): < 5 nM
- translocation of E-Selectin (E-Selectin [1]): resistant
- synthesis of E-Selectin (E-Selectin [2]): not-affected
- concentration needed to inhibit translocation of ICAM-1, relative to VCAM-1 (ICAM-1): 20 to 30 times
- sensitivity of SEAP secretion to the compound [3]: full sensitivity
- sensitivity of SEAP secretion to the compound (VCAMSP-SEAP construct): slight sensitivity
- sensitivity of SEAP secretion to the compound [4]: compound-insensitive
